In US20110293525A1, “TUMOR STEM CELLS” (BOARD OF TRUSTEES OF THE UNIVERSITY OF ILLINOIS, priority 2010, published 2011):

How the values were obtained:
[1] = test system: SCC040 parent and HNO cells
Method: (§1) Exposure to Radicals: Cells were exposed to varying concentrations of hydrogen peroxide to determine if the adapted cells were resistant to high free radical environments generated by oxygen-based free radicals. Parent and adapted cells were seeded (100 μL) into 96-well microtiter plates in the appropriate media (parent cells in media without NO donor, HNO cells in media supplemented with 600 μM DETA-NONOate) and incubated overnight, reaching approximately 70% confluency by the following day. Cells were treated with varying concentrations (0-1.78 mM) of hydrogen peroxide (30% w/w solution, Sigma H1009, Sigma-Aldrich Corp., St. Louis, Mo., USA) and incubated at 37° C. for an additional 24 h. MTT cell viability/proliferation assays were then performed, as described above. A minimum of four replicate wells were measured for each cell line at each concentration, and assays were repeated in triplicate. Data were normalized against the mean of the untreated control cells, and values lying outside of two standard deviations were removed. Data were plotted as the mean normalized absorbance±standard error.

[2] = test system: A549 parent and A549-HNO cells
Method: as §1

[3] = test system: SCC016 parent and HNO cells
Method: as §1

[4] = test system: T-47D parent and HNO cells
Method: as §1

[5] = test system: SCC116 parent and HNO cells
Method: as §1

[6] = test system: Hs578t parent and HNO cells
Method: as §1

[7] = test system: HNSCC parent and HNO cells; details: 24 h exposure, HNSCC cell lines
Method: as §1

[8] = test system: BT-20 parent and HNO cells
Method: as §1

[9] = test system: MCF-7 parent and HNO cells
Method: as §1

[10] = test system: SCC114 parent and HNO cells
Method: as §1

[11] = test system: four breast adenocarcinoma cell line pairs, parent and HNO cells; details: 24 h exposure, T-47D, Hs578T, BT-20, MCF-7 pairs
Method: as §1

[12] = test system: SCC056 parent and HNO cells
Method: as §1

parent A549 cells = assay: MTT viability/proliferation in media containing 600 μM DETA-NONOate; type: cell-based, human; details: 600 μM donor, 72 hour period
Method: (§2) Viability of Long Term NO Adapted Cultures: Cells from each of the cell lines were seeded (100 μL) into 96-wellmicrotiter plates and grown for 24 h, to ˜70% confluency. The media was then removed, and the cells were treated with 100-μL media containing varying concentrations (0-600 μM) of DETA-NONOate. Following an additional 72-h incubation period, cell proliferation/viability was assessed using the 3-(4,5-dimethylthiazol-2-yl)-2,5-diphenyltetrazolium bromide (MTT) assay. Media was removed from each well, and 100 μL of 2 mg/mL of MTT (Sigma-Aldrich Corp., St. Louis, Mo. USA) in phosphate buffer saline (PBS) was added. Plates were then placed in an incubator (37° C.) for 5 h, during which time purple formazan crystals formed upon the reaction of the MTT with mitochondrial dehydrogenases of viable cells. Following the incubation period, the MTT solution was removed, and 100 μL of dimethyl sulfoxide (DMSO) was added. The absorbance of the resulting purple solution in each well was read (540 nm) using a SpectraMax® Plus 384 spectrophotometer (Molecular Devices, Inc., Sunnyvale, Calif., USA). Each experiment was independently conducted a minimum of three times, and a minimum of four replicate wells were tested for each cell line at each concentration. Data were normalized to the mean optical density of the untreated control cells. […]

tumor cell lines = assay: MTT viability after 72 h exposure to 0-600 μM DETA-NONOate; type: cell-based; details: doses 0-600 μM
Method: as §2

[13] = test system: five HNSCC cell lines, parent cells; assay: MTT viability/proliferation in media containing 600 μM DETA-NONOate; type: cell-based, human
Method: as §2

LP07 parent cells = assay: MTT viability/proliferation in media containing 300 μM DETA-NONOate; type: cell-based, mouse; details: LP07 cell line
Method: as §2

[14] = buffer, pH 7.4; cited from earlier work

Compound | H2O2 Resistance: highest concentration of H2O2 that the HNO cell lines grow in which the parent cell lines do not survive [1] [mM] | concentrations at which both parent and HNO cells were killed ([2]; 24 h exposure, A549 and A549-HNO) [mM] | H2O2 Resistance: highest concentration of H2O2 that the HNO cell lines grow in which the parent cell lines do not survive ([2]; A549) [mM] | H2O2 Resistance: highest concentration of H2O2 that the HNO cell lines grow in which the parent cell lines do not survive [3] [mM] | H2O2 Resistance: highest concentration of H2O2 that the HNO cell lines grow in which the parent cell lines do not survive [4] [mM] | H2O2 Resistance: highest concentration of H2O2 that the HNO cell lines grow in which the parent cell lines do not survive [5] [mM] | H2O2 Resistance: highest concentration of H2O2 that the HNO cell lines grow in which the parent cell lines do not survive [6] [mM] | concentrations that killed both parent and HNO cells [7] | H2O2 Resistance: highest concentration of H2O2 that the HNO cell lines grow in which the parent cell lines do not survive [8] [mM] | H2O2 Resistance: highest concentration of H2O2 that the HNO cell lines grow in which the parent cell lines do not survive [9] [mM] | H2O2 Resistance: highest concentration of H2O2 that the HNO cell lines grow in which the parent cell lines do not survive [10] [mM] | concentrations at which both parent and HNO cells were killed [11] [µM] | H2O2 Resistance: highest concentration of H2O2 that the HNO cell lines grow in which the parent cell lines do not survive [12] [mM] | survival of parent cells placed directly into HNO environment (parent A549 cells) | minimum concentration studied that was completely lethal to the cells (tumor cell lines) [µM] | survival of parent cells in media containing the NO donor [13] | survival of parent cells in media containing the NO donor (LP07 parent cells) | half-life [14]
OO [H2O2, hydrogen peroxide] | 0.028 | ≥ 0.055 | 0.055 | 0.028 | 0.028 | 0.028 | 0.0069 | above 55 μM | 0.0069 | 0.014 | 0.55 | ≥ 110 | 0.028 | – | – | – | – | –
(Z)-1-[2-(2-aminoethyl)-N-(2-ammonioethyl) amino]diazen-1-ium-1,2-diolate [DETA-NONOate] | – | – | – | – | – | – | – | – | – | – | – | – | – | not able to survive | 600 | completely killed | Analogous results | approximately 24 h
